Measurements reported in patent publication US9328138B2 (priority 2011, dated 2016).

Columns and labels:
[1] = molecular target: HCV NS3 protease genotype 3a (3A-1) (Hepatitis C virus genotype 3a, UniProt Q81258); test: HCV NS3 protease time-resolved fluorescence (TRF) assay, genotype 3a; format: biochemical; conditions: Ki 3a
How it was run: (§1)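 Inhibitor titrations are mixed with NS3/NS4A in pH 7.5 HEPES buffer containing 10 mM DTT and 15% glycerol for 10 min before substrate (25 nM final) is added. After 6 h at room temperature, delayed fluorescence is read and fitted to a four-parameter curve for IC50.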

[2] = molecular target: T1, HCV genotype 1b (BK) NS3 modified enzyme with a R155K mutation (Hepatitis C virus genotype 1b, UniProt P26663, R1181K); test: HCV NS3 protease time-resolved fluorescence (TRF) assay, genotype 1b R155K; format: biochemical; conditions: Ki 1b R155K
T1 construct: HCV genotype 1b (BK) NS3 modified enzyme
How it was run: as §1

[3] = genotype 1b (BK) NS3 R155K, single value
[4] = first of two values printed in the cell (not explained)
[5] = second of two values printed in the cell (not explained)

C=C[C@@H]1C[C@]1(NC(=O)[C@@H]1C[C@@H]2CN1C(=O)[C@H](C(C)(C)C)NC(=O)O[C@@H]1C[C@H]1CCCCCc1c(nc3ccccc3c1OCCN1CC3(CCC3)C1)O2)C(=O)NS(=O)(=O)C1(C)CC1 [Example 136, (1aR,5S,8S,10R,22aR)-17-[2-(2-azaspiro[3.3]hept-2-yl)ethoxy]-5-tert-butyl-N-[(1R,2S)-2-ethenyl-1-{[(1-methylcyclopropyl)sulfonyl]carbamoyl}cyclopropyl]-3,6-dioxo-1,1a,3,4,5,6,9,10,18,19,20,21,22,22a-tetradecahydro-8H-7,10-methanocyclopropa[18,19][1,10,3,6] dioxadiazacyclononadecino [11,12-b]quinoline-8-carboxamide]
Ki [1]: 5100 pM
Ki [2, 3]: 580 pM

C=C[C@@H]1C[C@]1(NC(=O)[C@@H]1C[C@@H]2CN1C(=O)[C@H](C(C)(C)C)NC(=O)O[C@@H]1C[C@H]1CCCCCc1c(nc3cc(C)ccc3c1OCCCNC)O2)C(=O)NS(=O)(=O)C1(C)CC1 [Example 149, (1aR,5S,8S,10R,22aR)-5-tert-butyl-N-[(1R,2S)-2-ethenyl-1-{[(1-methylcyclopropyl)sulfonyl]carbamoyl}cyclopropyl]-14-methyl-17-[3-(methylamino)propoxy]-3,6-dioxo-1,1a,3,4,5,6,9,10,18,19, 20,21,22,22a-tetradecahydro-8H-7,10-methanocyclopropa[1,19] [1,10,3,6]dioxadiazacyclonona decino[11,12-b]quinoline-8-carboxamide]
Ki [1]: 740 pM
Ki [2, 3]: 41 pM

C=C[C@@H]1C[C@]1(NC(=O)[C@@H]1C[C@@H]2CN1C(=O)[C@H](C1CCCCC1)NC(=O)O[C@@H]1C[C@H]1CCCCCc1c(nc3ccccc3c1OC1CC3CCC(C1)N3C(=O)OC(C)(C)C)O2)C(=O)NS(=O)(=O)C1(C)CC1 (stereo partly drawn) [Example 282, tert-butyl 3-{[(1aR,5S,8S,10R,22aR)-5-cyclohexyl-8-{[(1R,2S)-2-ethenyl-1-{[(1-methylcyclopropyl)sulfonyl]carbamoyl}cyclopropyl]carbamoyl}-3,6-dioxo-1,1a,3,4,5,6,9,10,18,19,20,21,22,22a-tetradecahydro-8H-7,10-methanocyclopropa[18,19][1,10,3,6]dioxadiazacyclononadecino[11,12-b]quinolin-17-yl]oxy}-8-azabicyclo[3.2.1]octane-8-carboxylate]
Ki [1]: 140000 pM
Ki [2, 4]: 140 pM
Ki [2, 5]: 5300 pM

C=C[C@@H]1C[C@]1(NC(=O)[C@@H]1C[C@@H]2CN1C(=O)[C@H](C(C)(C)C)NC(=O)O[C@@H]1CCC[C@H]1CC/C=C/Cc1c(nc3ccccc3c1OCCCO)O2)C(=O)NS(=O)(=O)C1CC1 [Example 70, (3aR,7S,10S,12R,21E,24aS)-7-tert-butyl-N-{(1R,2S)-1-[(cyclopropylsulfonyl)carbamoyl]-2-ethenylcyclopropyl}-19-(3-hydroxypropoxy)-5,8-dioxo-1,2,3,3a,5,6,7,8,11,12,20,23,24,24a-tetradecahydro-10H-9,12-methanocyclopenta[18,19][1,10,3,6]dioxadiazacyclononadecino[11,12-b]quinoline-10-carboxamide]
Ki [1]: 590 pM
Ki [2, 3]: 66 pM

C=C[C@@H]1C[C@]1(NC(=O)[C@@H]1C[C@@H]2CN1C(=O)[C@H](C(C)(C)C)NC(=O)O[C@@H]1C[C@H]1CCCCCc1c(nc3c(F)cccc3c1OCCN1CCOCC1)O2)C(=O)NS(=O)(=O)C1(C)CC1 [Example 126, (1aR,5S,8S,10R,22aR)-5-tert-butyl-N-[(1R,2S)-2-ethenyl-1-{[(1-methylcyclopropyl)sulfonyl]carbamoyl}cyclopropyl]-13-fluoro-17-[2-(morpholin-4-yl)ethoxy]-3,6-dioxo-1,1a,3,4,5,6,9,10,18,19, 20,21,22,22a-tetradecahydro-8H-7,10-methanocyclopropa[18,19][1,10,3,6] dioxadiazacyclononadecino[11,12-b] quinoline-8-carboxamide]
Ki [1]: 7700 pM
Ki [2, 3]: 400 pM

C=C[C@@H]1C[C@]1(NC(=O)[C@@H]1C[C@@H]2CN1C(=O)[C@H](C(C)(C)C)NC(=O)O[C@@H]1C[C@H]1CCCCCc1c(nc3ccccc3c1OCCCNC1CCC1)O2)C(=O)NS(=O)(=O)C1(C)CC1 [Example 180, (1aR,5S,8S,10R,22aR)-5-tert-butyl-17-[3-(cyclobutylamino)propoxy]-N-[(1R,2S)-2-ethenyl-1-{[(1-methylcyclopropyl)sulfonyl]carbamoyl}cyclopropyl]-3,6-dioxo-1,1a,3,4,5,6,9,10, 18,19,20,21,22,22a-tetradeca hydro-8H-7,10-methanocyclopropa[18,19][1,10,3,6] dioxadiazacyclononadecino[11,12-b] quinoline-8-carboxamide]
Ki [1]: 580 pM
Ki [2, 3]: 37 pM

C=C[C@@H]1C[C@]1(NC(=O)[C@@H]1C[C@@H]2CN1C(=O)[C@H](C1CCCC1)NC(=O)O[C@@H]1CCC[C@H]1CC/C=C/Cc1c(nc3ccccc3c1OCCN1CC3(CCC3)C1)O2)C(=O)NS(=O)(=O)C1(C)CC1 [Example 86, (3aR,7S,10S,12R,21E,24aS)-19-[2-(2-azaspiro[3.3]hept-2-yl)ethoxy]-7-cyclopentyl-N-[(1R,2S)-2-ethenyl-1-{[(1-methylcyclopropyl)sulfonyl]carbamoyl}cyclopropyl]-5,8-dioxo-1,2,3,3a,5,6,7,8,11,12,20,23,24,24a-tetradecahydro-10H-9,12-methanocyclopenta[18,19] [1,10,3,6]dioxadiazacyclononadecino [11,12-b]quinoline-10-carboxamide]
Ki [1]: 4400 pM
Ki [2, 3]: 230 pM

C=C[C@@H]1C[C@]1(NC(=O)[C@@H]1C[C@@H]2CN1C(=O)[C@H](C1CCCCC1)NC(=O)O[C@@H]1C[C@H]1CCCCCc1c(nc3ccccc3c1O[C@@H]1CCN(C(=O)OC(C)(C)C)C[C@@H]1F)O2)C(=O)NS(=O)(=O)C1(C)CC1 [Example 292, tert-butyl (3S,4R)-4-{[(1aR,5S,8S,10R,22aR)-5-cyclohexyl-8-{[(1R,2S)-2-ethenyl-1-{[(1-methylcyclopropyl)sulfonyl]carbamoyl}cyclopropyl]carbamoyl}-3,6-dioxo-1,1a,3,4,5,6,9,10,18,19,20,21,22,22a-tetradecahydro-8H-7,10-methanocyclopropa[18,19][1,10,3,6]dioxadiazacyclononadecino[11,12-b]quinolin-17-yl]oxy}-3-fluoropiperidine-1-carboxylate]
Ki [1]: 49400 pM
Ki [2, 4]: 120 pM
Ki [2, 5]: 733 pM

C=C[C@@H]1C[C@]1(NC(=O)[C@@H]1C[C@@H]2CN1C(=O)[C@H](C(C)(C)C)NC(=O)O[C@@H]1CCC[C@H]1CCCCCc1c(nc3ccccc3c1OCCN1CCOCC1)O2)C(=O)NS(=O)(=O)C1CC1 [Example 104, (3aR,7S,10S,12R,24aR)-7-tert-butyl-N-{(1R,2S)-1-[(cyclopropylsulfonyl)carbamoyl]-2-ethenylcyclopropyl}-19-[2-(morpholin-4-yl)ethoxy]-5,8-dioxo-1,2,3,3a,5,6,7,8,11,12,20, 21,22,23,24,24a-hexadecahydro-10H-9,12-methanocyclopenta[18,19] [1,10,3,6]dioxadiaza-cyclononadecino[11,12-b] quinoline-10-carboxamide]
Ki [1]: 26000 pM
Ki [2, 3]: 1300 pM

C=C[C@@H]1C[C@]1(NC(=O)[C@@H]1C[C@@H]2CN1C(=O)[C@H](C(C)(C)C)NC(=O)O[C@@H]1C[C@H]1CCCCCc1c(nc3ccccc3c1OC1CC3CCC(C1)N3C(=O)OC(C)(C)C)O2)C(=O)NS(=O)(=O)C1(C)CC1 (single isomer, unassigned) [Example 273]
Ki [1]: 68000 pM
Ki [2, 4]: 100 pM
Ki [2, 5]: 1850 pM

C=C[C@@H]1C[C@]1(NC(=O)[C@@H]1C[C@@H]2CN1C(=O)[C@H](C(C)(C)C)NC(=O)O[C@@H]1C[C@H]1CCCCCc1c(nc3cc(C)ccc3c1OCCCNC1CC1)O2)C(=O)NS(=O)(=O)C1(C)CC1 [Example 145, (1aR,5S,8S,10R,22aR)-5-tert-butyl-17-[3-(cyclopropylamino)propoxy]-N-[(1R,2S)-2-ethenyl-1-{[(1-methylcyclopropyl)sulfonyl]carbamoyl}cyclopropyl]-14-methyl-3,6-dioxo-1,1a,3,4,5,6,9,10,18,19,20,21,22,22a-tetradecahydro-8H-7,10-methanocyclopropa[18,19][1,10,3,6]dioxadiazacyclononadecino[11,12-b]quinoline-8-carboxamide]
Ki [1]: 1200 pM
Ki [2, 3]: 79 pM

C=C[C@@H]1C[C@]1(NC(=O)[C@@H]1C[C@@H]2CN1C(=O)[C@H](C1CCCC1)NC(=O)O[C@@]1(C)C[C@@H]1CC/C=C/Cc1c(nc3ccccc3c1O)O2)C(=O)NS(=O)(=O)C1CC1 [Example 20, (1aS,5S,8S,10R,19E,22aS)-5-cyclopentyl-N-{(1R,2S)-1-[(cyclopropylsulfonyl)carbamoyl]-2-ethenylcyclopropyl}-17-hydroxy-1a-methyl-3,6-dioxo-1,1a,3,4,5,6,9,10,18,21,22,22a-dodecahydro-8H-7,10-methanocyclopropa[18,19][1,10,3,6]dioxadiazacyclononadecino[11,12-b]quinoline-8-carboxamide]
Ki [1]: 22000 pM
Ki [2, 3]: 550 pM

C=C[C@@H]1C[C@]1(NC(=O)[C@@H]1C[C@@H]2CN1C(=O)[C@H](C1CCCCC1)NC(=O)O[C@@H]1C[C@H]1CCCCCc1c(nc3ccccc3c1OC1CC3COCC(C1)N3CCOC)O2)C(=O)NS(=O)(=O)C1(C)CC1 (stereo partly drawn) [Example 289, (1aR,5S,8S,10R,22aR)-5-cyclohexyl-N-[(1R,2S)-2-ethenyl-1-{[(1-methylcyclopropyl)sulfonyl]carbamoyl}cyclopropyl]-17-{[9-(2-methoxyethyl)-3-oxa-9-azabicyclo[3.3.1]non-7-yl]oxy}-3,6-dioxo-1,1a,3,4,5,6,9,10,18,19,20,21,22,22a-tetradecahydro-8H-7,10-methanocyclopropa[18,19][1,10,3,6]dioxadiazacyclononadecino[11,12-b]quinoline-8-carboxamide]
Ki [1]: 3270 pM
Ki [2, 4]: 30 pM
Ki [2, 5]: 197 pM
